How the values were obtained:
[1] = Toxicity: LD50 determination in mice; details: mouse, in vivo; 10 to 11-week-old male mice, 3 to 5 mice per group; read-out: LD₅₀
Procedure: LD₅₀ was determined for Compound 2 as prepared in Reference Example 1 below using 10 to 11-week-old male mice (body weight: 14 to 16 g; 3 to 5 mice per group). AS a result, measured LD₅₀ values were more than 1,100 mg/kg at the lowest.

[2] = test system: coronarism induced by laser cauterization of the coronary artery; test: Preventive effect of premedication with coronary vasodilators on coronarism induced by laser cauterization of the coronary artery; format: in vivo; details: anesthetized dogs, drugs given 10 minutes before cauterization (TNG 100 µg i.c. + 50 µg/min d.i.v.; NC 30 µg/kg/min d.i.v.; Compound 2 10 µg/kg i.v.); for Degree of Stenosis (%) (m ± SE) 10 mins. After: 10 minutes after cauterization; for Degree of Stenosis (%) (m ± SE) 30 mins. After: 30 minutes after cauterization; for Degree of Stenosis (%) (m ± SE) Immediately After: immediately after cauterization
Procedure: Preventive effect of premedication of coronary vasodilators on coronarism induced by laser cauterization of the coronary artery was examined using dogs.
Twenty-three anesthetized dogs premediated with a coronary vasodilator [8 dogs in non-treated group (control group); 7 in nitroglycerin-treated (TNG) group (100 µg i.c. (intracoronary) + 50 µg/min d.i.v. (intravenous drip injection)); 5 in Nicorandil (NC) group (30 µg/kg/min d.i.v); and 8 in Compound 2 (hereinafter described) group (10 µg/kg i.v.)] were used. A 9F guiding catheter was inserted from the right common carotid artery into the 28th circumflex ramus extending from the anterior descending branch of the right common carotid artery. After intravenous injection of 250 U of heparin and 20 mg of lidocaine, a probe having an argon laser heating tip having a diameter of 1.5 mm (manufactured by Trimedyne Corp.) was inserted through the catheter, and 10 minutes after the administration of drugs the coronary vessel was cauterized under a condition of 4.5 W × […] under photofluoroscopic observation. Before the cauterization, immediately after the cauterization, and 10 minutes and 30 minutes after the cauterization, changes of the coronary artery were angiographically observed. The degree of stenosis (%) was calculated from the measured inner diameter each of the cauterized site and the normal site. The degree of stenosis of a site undergoing retardation of angiography was taken as 99%.

SMILES	LD50 [1] [mg/kg]	Degree of Stenosis (%) (m ± SE) 10 mins. After [2]	Degree of Stenosis (%) (m ± SE) 30 mins. After [2]	Degree of Stenosis (%) (m ± SE) Immediately After [2]
COC(=O)C1=C(C)NC(C)=C(C(=O)OCCc2ccc(N3CCN(C(c4ccccc4)c4ccccc4)CC3)cc2)C1c1cccc([N+](=O)[O-])c1 (stereo not shown) [Compound 2, 2-[p-(4-benzhydrylpiperazino)phenyl]ethyl methyl 2,6-dimethyl-4-(3-nitrophenyl)-1,4-dihydropyridine-3,5-dicarboxylate]	> 1100	9 ± 10	12 ± 12	12 ± 12
O=C(NCCO[N+](=O)[O-])c1cccnc1 [NC, Nicorandil]	–	28 ± 9	29 ± 8	38 ± 11
O=[N+]([O-])OCC(CO[N+](=O)[O-])O[N+](=O)[O-] [TNG, nitroglycerin]	–	73 ± 17	66 ± 17	71 ± 4

From patent EP0379737A2, “Dihydropyridine derivatives for the treatment of angiospasm” (THE GREEN CROSS CORPORATION, priority 1988, dated 1990)
